{"source": "paper PMC12475274", "about": "“Harnessing indole scaffolds to identify small-molecule IRE1α inhibitors modulating XBP1 mRNA splicing” (Nature Communications, 2025)", "key": {"IRE1α": {"target": "T1, IRE1α (Homo sapiens, UniProt O75460)", "T1 construct": "Human IRE1α kinase and RNase domain (residues 547–977) was subcloned into pLIB plasmid; His tag (with TEV cleavage site) (N, cleaved yes); made in house; host or cells: Sf9 insect cells, baculovirus (Bac-to-Bac)", "T1 sequence (O75460 547-977)": "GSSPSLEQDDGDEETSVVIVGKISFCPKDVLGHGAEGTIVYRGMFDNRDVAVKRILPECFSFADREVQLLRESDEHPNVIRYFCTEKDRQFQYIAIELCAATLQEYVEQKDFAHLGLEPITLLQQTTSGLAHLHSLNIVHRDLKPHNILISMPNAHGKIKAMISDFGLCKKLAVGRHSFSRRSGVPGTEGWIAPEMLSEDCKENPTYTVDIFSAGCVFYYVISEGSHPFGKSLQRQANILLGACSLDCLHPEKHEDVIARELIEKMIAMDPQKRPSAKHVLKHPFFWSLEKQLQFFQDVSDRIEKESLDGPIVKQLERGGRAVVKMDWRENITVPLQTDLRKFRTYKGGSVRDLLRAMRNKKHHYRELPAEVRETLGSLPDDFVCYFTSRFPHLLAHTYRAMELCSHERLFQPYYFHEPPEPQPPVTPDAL", "test": "Differential scanning fluorimetry (DSF), IRE1α", "format": "binding", "conditions": "for IRE1a ∆Tm: DSF, individual measurements; for IRE1 ∆Tm(°C): Supplementary Fig. 3c, replicate values", "description": "The DSF assay was performed in PBS buffer containing 2 mM DTT, in a total reaction volume of 20 µl with indicated compounds (final 1% DMSO) and the final concentration of 1 µM IRE1α protein and 5× SYPRO Orange fluorescent dye (5000× in DMSO, Sigma S5692). The melting curve was measured at a temperature range from 25 °C to 95 °C and in increments of 1 °C for 30 s using a Bio-Rad CFX96 Real-Time PCR detection system with the FRET scan mode. The melting temperature (Tm) was obtained by fitting the melting curve to Boltzmann sigmoidal in GraphPad Prism and the thermal shift (∆Tm) was calculated by using the equation: ∆Tm = Tm(compound) -Tm(DMSO)."}, "dephosphorylated IRE1α": {"target": "T2, dephosphorylated IRE1α (Homo sapiens, UniProt O75460)", "T2 construct": "Human IRE1α kinase and RNase domain (residues 547–977) was subcloned into pLIB plasmid; His tag (with TEV cleavage site) (N, cleaved yes); made in house; host or cells: Sf9 insect cells, baculovirus (Bac-to-Bac)", "T2 sequence (O75460 547-977)": "as above", "test": "Isothermal titration calorimetry (ITC), incl. competitive ITC", "format": "binding", "description": "The dephosphorylated IRE1α protein was used directly after purification, ITC experiments were carried out at 25 °C using MicroCal PEAQ-ITC system (Malvern) in buffer 25 mM HEPES pH 7.5, 250 mM NaCl, 1 mM TCEP, 5% glycerol, 1% DMSO. The solution was diluted to a final 1% DMSO in the same buffer as for the protein. Protein and compound solution were degassed before loading to the cell and syringe respectively. Unless otherwise noted, 200 μM of compound was loaded into the syringe and 10 μM of IRE1α protein was loaded into the sample cell. For competitive ITC, the protein was incubated with the indicated compound at 25 °C (final 1% DMSO) before loading to the cell. Instrument settings were: reference power 10 μcal/s, feedback high, stir speed 750 rpm, initial delays 60 s, injection spacing 150 s, injection duration 4 s. All experiments were performed with a single 0.4 μL injection followed by 18 (or 15), 2 μL injections. Data were analyzed using MicroCal PEAQ-ITC analysis software. The one set of sites fitting model is used for the calorimetry data analysis, with cell concentration and syringe concentration as the input parameters. For compound IA01, the N was set to 1 to improve the fit."}, "[1]": {"target": "T3, dephosphorylated IRE1α (547–977) (Homo sapiens, UniProt O75460)", "T3 construct": "Human IRE1α kinase and RNase domain (residues 547–977) was subcloned into pLIB plasmid; His tag (with TEV cleavage site) (N, cleaved yes); made in house; host or cells: Sf9 insect cells, baculovirus (Bac-to-Bac)", "T3 sequence (O75460 547-977)": "as above", "test": "FRET-based IRE1α RNase activity assay, dephosphorylated IRE1α", "format": "biochemical", "conditions": "for IC50: FRET assay", "outline": "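Dephosphorylated human IRE1α (residues 547–977, Sf9-expressed, λ-phosphatase treated), 40 nM, preincubated 30 min with compound at room temperature, then 100 nM FAM/BHQ1 XBP1 RNA added in HEPES pH 7.5 buffer. Fluorescence (485/535 nm) read kinetically for 1 h; inhibition from linear-phase slopes versus DMSO, fitted to IC50.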"}, "[2]": {"conditions": "200 μM compound into 10 μM IRE1α, no competitor"}, "[3]": {"conditions": "RNase activity, mean (± SEM), read-out: IRE1α IC50"}, "[4]": {"conditions": "source data, unit from Fig. 3 / sheet Fig. 2b, read-out: IRE1a IC50, individual replicates (n1-n4)"}}, "note": "Values joined by “and” are separate entries in the source; they are usually repeats but may differ in a detail not shown here. Identical values can stand only once. Like-named read-outs stand apart in the source and are kept apart here."}
{"smiles": "COc1ccc2c(c1)c(CCC(=O)O)c(C)n2C(=O)c1ccc(Cl)cc1", "note": "[IA01]", "values": [{"measurement": "stabilization of IRE1α in DSF", "setting": "IRE1α", "value": "stabilized IRE1α concentration-dependently"}, {"measurement": "IRE1a ∆Tm", "setting": "IRE1α; compound 25 μM", "value": "1.17 °C and 1.02 °C"}, {"measurement": "IRE1a ∆Tm", "setting": "IRE1α; compound 50 μM", "value": "1.57 °C and 1.89 °C"}, {"measurement": "-TΔS (ITC)", "setting": "dephosphorylated IRE1α; [2]", "value": -2.14, "unit": "kcal/mol"}, {"measurement": "N(sites) (ITC)", "setting": "dephosphorylated IRE1α; [2]", "value": 1}, {"measurement": "ΔG (ITC)", "setting": "dephosphorylated IRE1α; [2]", "value": -7.62, "unit": "kcal/mol"}, {"measurement": "ΔH (ITC)", "setting": "dephosphorylated IRE1α; [2]", "value": "-5.48 ± 2.28", "unit": "kcal/mol"}, {"measurement": "IRE1a inhibition(%), individual measurements", "setting": "[1]; FRET assay at 10 μM, source data, 10 µM", "value": 86.3319, "unit": "%"}, {"measurement": "inhibition at 10 µM", "setting": "[1]; FRET assay at 10 μM, source data, read-out: IRE1a inhibition(%), individual measurements", "value": 85.9, "unit": "%"}, {"measurement": "inhibition at 50 µM", "setting": "[1]; FRET assay at 50 μM, mean (± SEM), read-out: IRE1α inhibition%", "value": 97.1, "unit": "%"}, {"measurement": "IRE1a inhibition(%), individual measurements", "setting": "[1]; FRET assay at 50 μM, source data, 50 µM", "value": "92.8762% and 91.6346% and 94.1417% and 92.7378% and 93.1088% and 89.7986% and 113.165% and 103.517% and 100.196% and 112.293% and 71.6431% and 81.6993%"}, {"measurement": "IC50", "setting": "[1]; [3]", "value": 300, "unit": "nM"}, {"measurement": "IC50", "setting": "[1]; [4]", "value": "286 nM and 204 nM and 400 nM"}]}
{"smiles": "Cc1ccc2c(NS(=O)(=O)c3ccccc3Cl)cccc2c1Oc1ncccc1-c1ccnc(N[C@H]2CCCNC2)n1", "note": "[KIRA8]", "values": [{"measurement": "IC50", "setting": "[1]; [3]", "value": 21, "unit": "nM"}]}
{"smiles": "COc1ccc2c(c1)c(CCC(=O)O)c(C)n2C(=O)c1ccccc1", "note": "[IA64]", "values": [{"measurement": "stabilization of IRE1α in DSF", "setting": "IRE1α", "value": "concentration-dependently stabilized"}, {"measurement": "IRE1 ∆Tm(°C)", "setting": "IRE1α; compound 6.25 μM", "value": "1.2 °C and 1.21 °C"}, {"measurement": "IRE1 ∆Tm(°C)", "setting": "IRE1α; compound 12.5 μM", "value": "1.94 °C and 2.05 °C"}, {"measurement": "IRE1 ∆Tm(°C)", "setting": "IRE1α; compound 25 μM", "value": "2.82 °C and 2.92 °C"}, {"measurement": "IRE1 ∆Tm(°C)", "setting": "IRE1α; compound 50 μM", "value": 3.88, "unit": "°C"}, {"measurement": "Kd", "setting": "dephosphorylated IRE1α; titrating 200 μM compound into 10 μM IRE1α, no competitor (DMSO), read-out: KD (ITC)", "value": 2960, "unit": "nM"}, {"measurement": "IC50", "setting": "[1]; [3]", "value": "30 nM and 34.9 nM"}, {"measurement": "IC50", "setting": "[1]; [4]", "value": "44.1 nM and 36.7 nM and 38.4 nM and 20.4 nM"}]}
{"smiles": "CCOC(=O)CCc1c(C)n(C(=O)c2ccccc2)c2ccc(Br)cc12", "note": "[IAPD1]", "values": [{"measurement": "effect on IRE1α RNase activity in the FRET assay", "setting": "[1]", "value": "did not show any detectable activity"}, {"measurement": "IC50", "setting": "[1]; [3]", "value": "> 50000", "unit": "nM"}, {"measurement": "effect on IRE1α RNase activity in the FRET assay", "setting": "[1]; listed as IADP1", "value": "did not inhibit the RNase activity"}]}
